Literature values as cited in patent publication US7985432B2, “Insect repellent” (Bioniche Life Sciences, Inc., priority 2003, dated 2011).

System: Mosquitoes

## CC1=COC(=O)C2C(C)CCC12 (stereo not shown) [Nepetalactone]
  Effectiveness at repelling mosquitoes relative to DEET: about ten times more effective at repelling mosquitoes than DEET
